Test results published in patent US8013153B2, “Substituted pyrimidine kinase inhibitors” (Janssen Pharmaceutica, N.V., priority 2006, dated 2011).
Where two headings read alike, the source gives them in different places.

Columns and labels:
[1] = biological target: T1, rat VEGF-R2 kinase domain (Rattus norvegicus, UniProt O08775); test: VEGF-R2 Screening Assay; assay type: biochemical; conditions: > means no observed 50% inhibition at the indicated test concentration; ~ means approximately 50% inhibition at that concentration; read-out: IC50 VEGF-R2
T1 construct: amino acids 786-1343 of the rat VEGF-R2 kinase domain; polyhistidine (N)

[2] = system: HeLa cervical adenocarcinoma; test: Inhibition of in vitro cell proliferation (HeLa); assay type: cell-based, human; conditions: 14C-thymidine incorporation;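 also: cells exposed to compound for 24 h, then labelled 24 h with methyl 14C-thymidine, with uptake into DNA counted by scintillation against DMSO-only control wells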
HER2 cytoplasmic domain = biological target: T2, HER2 cytoplasmic domain (Homo sapiens, UniProt P04626); test: HER2 Kinase Screening Assay; assay type: biochemical; conditions: > means no observed 50% inhibition at the indicated test concentration; ~ means approximately 50% inhibition at that concentration
T2 construct: polyhistidine (N)
Procedure: (§1) A kinase reaction mixture was prepared containing 50 mM Tris-HCl pH=8, 10 mM MgCl2, 0.1 mM Na3PO4, 1 mM DTT, 10 μM ATP, 0.025 μM biotinylated histone-H1 peptide substrate and 0.2 μCuries per well ^33P-γ-ATP (2000-3000 Ci/mmol). 70 μL of the kinase reaction mixture was dispensed into the well of a streptavidin coated FlashPlate™ (Cat. # SMP103, NEN, Boston, Mass.). Then 1 μL of test compound stock in 100% DMSO was added to the wells resulting in a final concentration of 1% DMSO in the reaction with a 100 μL final reaction volume.
(§2) The CDK1:Cyclin-B protein was diluted in 50 mM Tris-HCl pH=8.0, 0.1% BSA at a concentration of 1 ng per μL and 30 μL (30 ng enzyme per test well) was added to each well to initiate the reaction. The reaction was incubated for one hour at 30° C. At the end of the 1 hour incubation, the reaction was terminated by aspirating the mixture from the plate and washing the wells twice with PBS containing 100 mM EDTA. The histone-H1 biotinylated peptide substrate became immobilized on the Flashplate™ and the incorporation of ^33P-γ-ATP was measured by reading the plate on a scintillation counter. Inhibition of the enzymatic activity of CDK1 was measured by observing a reduced amount of ^33P-γ-ATP incorporated into the immobilized peptide.
The HER2 kinase assay was carried out using the CDK kinase assay procedure except that the enzyme was replaced with a HER2 construct containing a polyhistidine tag at the N-terminus followed by 24 additional amino acids and the HER2 cytoplasmic domain beginning at amino acid 676 (Accession #M11730) to the end.

murine Aurora-A = biological target: T3, murine Aurora-A (Mus musculus, UniProt P97477); test: Aurora-A Screening Assay; assay type: biochemical
T3 construct: replaced with the full length protein encoding the murine Aurora-A; made in house; host or cells: sf9 insect cells
T3 sequence (P97477 1-395): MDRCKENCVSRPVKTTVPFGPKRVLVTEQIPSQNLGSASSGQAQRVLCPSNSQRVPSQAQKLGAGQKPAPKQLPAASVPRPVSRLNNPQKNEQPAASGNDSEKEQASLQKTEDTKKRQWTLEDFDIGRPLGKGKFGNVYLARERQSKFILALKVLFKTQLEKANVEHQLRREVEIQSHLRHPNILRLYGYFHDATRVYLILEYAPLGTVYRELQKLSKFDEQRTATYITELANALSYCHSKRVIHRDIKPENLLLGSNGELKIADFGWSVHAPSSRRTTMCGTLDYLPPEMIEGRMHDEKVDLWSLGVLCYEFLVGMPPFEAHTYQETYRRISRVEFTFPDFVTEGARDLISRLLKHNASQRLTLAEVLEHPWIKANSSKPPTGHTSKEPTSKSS
Procedure: as §1, §2
The Aurora-A kinase assay was carried out using the CDK kinase assay procedure except that the enzyme was replaced with the full length protein encoding the murine Aurora-A (Accession #GB BC014711) expressed and purified from sf9 insect cells.

HCT-116 colon carcinoma = test: Inhibition of in vitro cell proliferation (HCT116); assay type: cell-based, human;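 also: cells exposed to compound for 24 h, then 14C-thymidine added for a further 24 h and its uptake into DNA counted by scintillation, DMSO-only wells as control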
A375 malignant melanoma = test: Inhibition of in vitro cell proliferation (A375); assay type: cell-based, human;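 also: cells plated for 24 h, given compound for 24 h, then labelled with 14C-thymidine for another 24 h, with DMSO-only wells as control and counts read by scintillation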
CDK1:Cyclin-B = biological target: T4, CDK1:Cyclin-B (Homo sapiens, UniProt P06493); test: CDK1 Screening Assay; assay type: biochemical
T4 construct: purchased New England Biolabs, Beverly, Mass; 6020; host or cells: insect cells
Procedure: as §1, §2
The CDK1 used was isolated from insect cells expressing both the human CDK1 catalytic subunit and its positive regulatory subunit cyclin B (New England Biolabs, Beverly, Mass., Cat. #6020).

[3] = Homo sapiens, HCT-116, 14C-thymidine incorporation
[4] = Homo sapiens, A-375, 14C-thymidine incorporation
[5] = > means no observed 50% inhibition at the indicated test concentration, ~ means approximately 50% inhibition at that concentration

T1 sequence (O08775 786-1343): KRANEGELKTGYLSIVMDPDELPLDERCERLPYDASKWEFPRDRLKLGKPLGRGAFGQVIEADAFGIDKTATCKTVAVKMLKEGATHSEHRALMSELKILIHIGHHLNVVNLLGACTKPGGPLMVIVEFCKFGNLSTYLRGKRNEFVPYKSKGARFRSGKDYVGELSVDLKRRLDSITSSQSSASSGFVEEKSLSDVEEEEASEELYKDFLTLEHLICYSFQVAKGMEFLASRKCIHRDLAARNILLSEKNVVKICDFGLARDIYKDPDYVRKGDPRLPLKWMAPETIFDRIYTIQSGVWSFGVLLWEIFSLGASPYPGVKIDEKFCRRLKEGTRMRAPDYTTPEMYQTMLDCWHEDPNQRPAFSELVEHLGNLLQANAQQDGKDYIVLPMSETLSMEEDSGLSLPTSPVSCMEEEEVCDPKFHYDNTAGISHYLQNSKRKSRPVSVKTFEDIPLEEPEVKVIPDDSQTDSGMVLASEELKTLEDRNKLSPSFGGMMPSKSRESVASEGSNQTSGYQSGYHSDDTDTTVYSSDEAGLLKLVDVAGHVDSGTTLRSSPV
T4 sequence (P06493 whole entry): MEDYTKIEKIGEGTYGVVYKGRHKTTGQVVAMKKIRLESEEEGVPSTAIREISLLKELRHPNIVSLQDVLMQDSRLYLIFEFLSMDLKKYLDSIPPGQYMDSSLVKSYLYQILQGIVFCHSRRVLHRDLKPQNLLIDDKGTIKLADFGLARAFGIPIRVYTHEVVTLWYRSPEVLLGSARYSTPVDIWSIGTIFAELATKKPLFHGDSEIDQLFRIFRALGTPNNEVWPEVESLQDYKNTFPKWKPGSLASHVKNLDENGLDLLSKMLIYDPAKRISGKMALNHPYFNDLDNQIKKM
T4 sequence (P14635 whole entry partner): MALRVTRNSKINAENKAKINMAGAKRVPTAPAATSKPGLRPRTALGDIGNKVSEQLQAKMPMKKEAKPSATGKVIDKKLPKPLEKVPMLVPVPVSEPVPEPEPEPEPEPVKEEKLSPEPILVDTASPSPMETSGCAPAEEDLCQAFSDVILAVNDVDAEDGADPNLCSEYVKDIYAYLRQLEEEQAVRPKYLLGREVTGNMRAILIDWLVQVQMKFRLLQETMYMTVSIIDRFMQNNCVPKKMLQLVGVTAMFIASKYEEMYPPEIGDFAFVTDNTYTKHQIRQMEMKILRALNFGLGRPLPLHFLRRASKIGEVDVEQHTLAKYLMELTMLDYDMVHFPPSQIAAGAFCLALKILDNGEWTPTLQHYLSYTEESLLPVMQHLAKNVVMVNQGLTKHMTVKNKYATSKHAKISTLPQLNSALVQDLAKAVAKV
T2 sequence (P04626 676-1255 limits assumed): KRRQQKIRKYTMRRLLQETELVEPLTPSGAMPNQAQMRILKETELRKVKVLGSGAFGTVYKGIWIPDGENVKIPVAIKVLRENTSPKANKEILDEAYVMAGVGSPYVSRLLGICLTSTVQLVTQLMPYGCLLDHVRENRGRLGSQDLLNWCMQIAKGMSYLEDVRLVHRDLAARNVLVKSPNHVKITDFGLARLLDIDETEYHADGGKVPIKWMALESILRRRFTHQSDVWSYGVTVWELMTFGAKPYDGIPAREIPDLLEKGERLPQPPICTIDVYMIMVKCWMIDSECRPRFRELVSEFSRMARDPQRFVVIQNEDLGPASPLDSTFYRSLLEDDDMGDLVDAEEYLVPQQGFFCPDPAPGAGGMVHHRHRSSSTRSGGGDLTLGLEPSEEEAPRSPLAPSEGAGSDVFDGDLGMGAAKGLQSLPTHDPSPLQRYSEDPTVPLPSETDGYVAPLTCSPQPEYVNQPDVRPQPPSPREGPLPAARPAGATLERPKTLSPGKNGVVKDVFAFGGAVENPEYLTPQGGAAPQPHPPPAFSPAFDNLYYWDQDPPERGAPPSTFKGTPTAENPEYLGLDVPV

| IC50 [1] [µM] | IC50 ([2]; Homo sapiens) [µM] | IC50 (HER2 cytoplasmic domain) [µM] | IC50 (murine Aurora-A) [µM] | IC50 (HCT-116 colon carcinoma; [3]) [µM] | IC50 (A375 malignant melanoma; [4]) [µM] | IC50 (CDK1:Cyclin-B) [µM] | IC50 [2] [µM] | IC50 (HCT-116 colon carcinoma; 14C-thymidine incorporation) [µM] | IC50 (A375 malignant melanoma; 14C-thymidine incorporation) [µM] | IC50 (murine Aurora-A; [5]) [µM] | IC50 (CDK1:Cyclin-B; [5]) [µM] | SMILES |
| --- | --- | --- | --- | --- | --- | --- | --- | --- | --- | --- | --- | --- |
| 0.0016 | – | > 100 | > 100 | – | – | > 100 | > 100 | > 100 | > 100 | – | – | CON=Cc1c(N)ncnc1Oc1ccc(NC(=O)Nc2ccc(OC)cc2)c(Cl)c1 [Cpd 62, 1-{4-[6-amino-5-(methoxyimino-methyl)-pyrimidin-4-yloxy]-2-chloro-phenyl}-3-(4-methoxy-phenyl)-urea] |
| 0.0022 | – | > 10 | – | – | – | – | > 10 | > 10 | > 10 | > 100 | > 100 | CON=Cc1c(N)ncnc1Oc1ccc(NC(=O)Nc2ccc(OC)cc2)c(Cl)c1 [Cpd 63, 1-{4-[6-amino-5-(methoxyimino-methyl)-pyrimidin-4-yloxy]-2-chloro-phenyl}-3-(4-methoxy-phenyl)-urea] |
| 0.0072 | > 100 | > 100 | > 100 | > 100 | > 100 | > 100 | – | – | – | – | – | CCCCNC(=O)Nc1ccc(Oc2ncnc(N)c2C=NOC)cc1Cl [Cpd 64, 1-{4-[6-amino-5-(methoxyimino-methyl)-pyrimidin-4-yloxy]-2-chloro-phenyl}-3-butyl-urea] |
| > 100 | > 10 | > 1 | > 10 | > 10 | > 10 | > 10 | – | – | – | – | – | CNC(=O)Nc1ccc(Oc2ncnc(N)c2C=NOC)cc1Br [Cpd 73, 1-{4-[6-amino-5-(methoxyimino-methyl)-pyrimidin-4-yloxy]-2-bromo-phenyl}-3-methyl-urea] |
| ~100 | > 100 | > 1 | > 100 | > 100 | > 10 | > 100 | – | – | – | – | – | CON=Cc1c(N)ncnc1Oc1ccc(NC(=O)Nc2ccc(F)cc2)c(Br)c1 [Cpd 74, 1-{4-[6-amino-5-(methoxyimino-methyl)-pyrimidin-4-yloxy]-2-bromo-phenyl}-3-(4-fluoro-phenyl)-urea] |
| 0.002 | > 10 | > 10 | > 100 | > 10 | > 10 | > 100 | – | – | – | – | – | CON=Cc1c(N)ncnc1Oc1ccc(NC(=O)Nc2cccc(C)c2)c(Cl)c1 [Cpd 76, 1-{4-[6-amino-5-(methoxyimino-methyl)-pyrimidin-4-yloxy]-2-chloro-phenyl}-3-m-tolyl-urea] |
| 0.0016 | > 100 | > 100 | > 100 | > 100 | > 100 | > 100 | – | – | – | – | – | CON=Cc1c(N)ncnc1Oc1ccc(NC(=O)Nc2ccc(C)cc2)c(Cl)c1 [Cpd 77, 1-{4-[6-amino-5-(methoxyimino-methyl)-pyrimidin-4-yloxy]-2-chloro-phenyl}-3-p-tolyl-urea] |
| 0.0275 | 3.58 | > 100 | > 100 | 3.72 | 2.2 | > 100 | – | – | – | – | – | C#CCNC(=O)Nc1ccc(Oc2ncnc(N)c2C=NOC)cc1Cl [Cpd 79, 1-{4-[6-amino-5-(methoxyimino-methyl)-pyrimidin-4-yloxy]-2-chloro-phenyl}-3-prop-2-ynyl-urea] |

The remaining lines, values behind:

| SMILES | IC50 [1] [µM] | IC50 ([2]; Homo sapiens) [µM] | IC50 (HER2 cytoplasmic domain) [µM] | IC50 (murine Aurora-A) [µM] | IC50 (HCT-116 colon carcinoma; [3]) [µM] | IC50 (A375 malignant melanoma; [4]) [µM] | IC50 (CDK1:Cyclin-B) [µM] | IC50 [2] [µM] | IC50 (HCT-116 colon carcinoma; 14C-thymidine incorporation) [µM] | IC50 (A375 malignant melanoma; 14C-thymidine incorporation) [µM] | IC50 (murine Aurora-A; [5]) [µM] | IC50 (CDK1:Cyclin-B; [5]) [µM] |
| --- | --- | --- | --- | --- | --- | --- | --- | --- | --- | --- | --- | --- |
| CON=Cc1c(N)ncnc1Oc1ccc(NC(=O)Nc2ccc(F)cc2F)c(Cl)c1 [Cpd 61, 1-{4-[6-amino-5-(methoxyimino-methyl)-pyrimidin-4-yloxy]-2-chloro-phenyl}-3-(2,4-difluoro-phenyl)-urea] | 0.003 | > 100 | > 100 | > 100 | > 10 | > 100 | > 100 | – | – | – | – | – |
| CON=Cc1c(N)ncnc1Oc1ccc(NC(=O)NC2CCCCC2)c(Cl)c1 [Cpd 65, 1-{4-[6-amino-5-(methoxyimino-methyl)-pyrimidin-4-yloxy]-2-chloro-phenyl}-3-cyclohexyl-urea] | 0.0065 | > 100 | > 10 | > 100 | > 100 | > 100 | > 100 | – | – | – | – | – |
| CON=Cc1c(N)ncnc1Oc1ccc(O)cc1 [Cpd 67, 4-amino-6-(4-hydroxy-phenoxy)-pyrimidine-5-carbaldehyde O-methyl-oxime] | 4.36 | 3.99 | 13.1 | 17.8 | 2.95 | 3.22 | > 100 | – | – | – | – | – |
| CNC(=O)Nc1ccc(Oc2ncnc(N)c2C=NOC)c(Cl)c1 [Cpd 70, 1-{4-[6-amino-5-(methoxyimino-methyl)-pyrimidin-4-yloxy]-3-chloro-phenyl}-3-methyl-urea] | 0.278 | 4.06 | > 100 | > 10 | 4.86 | 2.55 | > 100 | – | – | – | – | – |
| CCNC(=O)Nc1ccc(Oc2ncnc(N)c2C=NOC)c(Cl)c1 [Cpd 71, 1-{4-[6-amino-5-(methoxyimino-methyl)-pyrimidin-4-yloxy]-3-chloro-phenyl}-3-ethyl-urea] | 0.179 | 3.98 | > 1 | > 10 | 4.79 | 3.09 | > 100 | – | – | – | – | – |
| CNC(=O)Nc1ccc(Oc2ncnc(N)c2C=NOC)cc1F [Cpd 72, 1-{4-[6-amino-5-(methoxyimino-methyl)-pyrimidin-4-yloxy]-2-fluoro-phenyl}-3-methyl-urea] | 0.142 | > 10 | > 10 | > 100 | > 10 | > 10 | > 100 | – | – | – | – | – |
| CON=Cc1c(N)ncnc1Oc1ccc(NC(=O)Nc2ccccc2C)c(Cl)c1 [Cpd 75, 1-{4-[6-amino-5-(methoxyimino-methyl)-pyrimidin-4-yloxy]-2-chloro-phenyl}-3-o-tolyl-urea] | 0.0079 | > 100 | > 100 | > 100 | > 100 | > 100 | > 100 | – | – | – | – | – |
| CON=Cc1c(N)ncnc1Oc1ccc(NC(=O)NCc2ccc(F)cc2F)c(Cl)c1 [Cpd 78, 1-{4-[6-amino-5-(methoxyimino-methyl)-pyrimidin-4-yloxy]-2-chloro-phenyl}-3-(2,4-difluoro-benzyl)-urea] | 0.0103 | > 100 | > 100 | > 100 | > 100 | > 100 | > 100 | – | – | – | – | – |
| CON=Cc1c(N)ncnc1Oc1ccc(NC(=O)NC(C)C)c(Cl)c1 [Cpd 80, 1-{4-[6-amino-5-(methoxyimino-methyl)-pyrimidin-4-yloxy]-2-chloro-phenyl}-3-isopropyl-urea] | 0.0729 | > 10 | > 10 | > 10 | > 10 | > 1 | > 100 | – | – | – | – | – |
| CON=Cc1c(N)ncnc1Oc1ccc(NC(=O)NCCO)c(Cl)c1 [Cpd 81, 1-{4-[6-amino-5-(methoxyimino-methyl)-pyrimidin-4-yloxy]-2-chloro-phenyl}-3-(2-hydroxy-ethyl)-urea] | 0.168 | 4.27 | > 100 | > 100 | 4.06 | 3.91 | > 100 | – | – | – | – | – |
